Values after ≈ are worked out from the molar mass of the structure shown. Like-named read-outs stand apart in the source and are kept apart here.
Assays:
[1] = tested on: Plasmodium falciparum K1; test: microbe, parasite or virus in culture; type: cell-based; conditions: for EC50: Plasmodium falciparum, K1, read-out: EC50 P. falc.
Method: (§1) V. Design and Results of the in vitro & in vivo Studies.
A. Drug inhibition of in vitro cultured P. falciparum parasite:2 All in vitro assays were carried out twice independently. In vitro activity against the erythrocytic stages of P. falciparum was determined by using a 3H-hypoxanthine incorporation assay,5-6 using the […]
were dissolved in DMSO at 10 mg/mL and added to parasite cultures incubated in RPMI […]
haematocrit (0.3% parasitaemia). Serial doubling dilutions of each drug were prepared in […]
After 48 h, 50 µL of 3H-hypoxanthine (= 0.5 µCi) was added to each well of the plate. The plates were incubated for an additional 24 h under the same conditions. The plates were then harvested with a Betaplate cell harvester (Wallac, Zurich, Switzerland), and the red blood cells were transferred onto a glass fiber filter and then washed with distilled water. The dried filters were inserted into a plastic foil with 10 mL of scintillation fluid and were counted in a Betaplate™ liquid scintillation counter (Wallac, Zurich, […]

[2] = tested on: L6 cells; test: In vitro cytotoxicity assay in L6 cells (Alamar Blue); type: cell-based; conditions: Rattus norvegicus, mean of two independent assays, read-out: EC50 L6 cells
Method: as §1
A. Drug inhibition of in vitro cultured P. falciparum parasite:2 All in vitro assays were carried out twice independently. In vitro activity against the erythrocytic stages of P. […]
B. In vitro cytotoxicity assay:2 Assays were performed in 96-well microtiter plates, each […]
mM) and 10% fetal bovine serum, and 4 x 10^4 L-6 cells (a primary cell line derived from rat skeletal myoblasts). Serial drug dilutions of seven 3-fold dilution steps covering a range […]
After 72 h of incubation the plates were inspected […]
of Alamar Blue was then added to each well and the plates incubated for another 2 h.
Then the plates were read with a Spectramax Gemini XS microplate fluorometer (Molecular Devices Cooperation, Sunnyvale, CA, USA) using an excitation wave length of […]
Data were analysed using the microplate reader software Softmax Pro (Molecular Devices Cooperation, Sunnyvale, CA, USA).

[3] = Aqueous solubility estimated by nephelometry; type: physicochemical; conditions: kinetic from dmso stock, nephelometry, 1% DMSO
Method: III. Physicochemical Evaluation […]
Solubility Estimation: Aqueous solubility was estimated by nephelometry.
Compound in DMSO was spiked into either water, pH 6.5 phosphate buffer or 0.01N HCl
(approx. pH 2.0) with the final DMSO concentration being 1%. Samples were then
analyzed by Nephelometry to determine the solubility range as described previously.1

[4] = Table 1, A-ring variants, mammalian L6 cells
[5] = Table 1, water, read-out: Solubility water
[6] = aqueous buffer, pH 6.5 phosphate buffer, read-out: Solubility pH 6.5
[7] = simulated gastric fluid, pH 2.0 (0.01N HCl), read-out: Solubility pH 2.0
[8] = Table 2, C-ring variants, L6 cells

| SMILES | EC50 [1] | EC50 [2, 4] | melting point | also measured |
| --- | --- | --- | --- | --- |
| CCOC(=O)C1=C(C)N/C(=C/c2cc(C)n(C3CCN(Cc4ccccc4C(F)(F)F)CC3)c2C)C1=O [Compound 29] | 0.5 nM | 1700 nM |  | EC50 (P. falciparum K1) ([1]; values in nM): sub-nanomolar; solubility [3, 5]: > 125 µM |
| CCOC(=O)C1=C(C)N/C(=C/c2cc(C)n(C3CCN(CC4CCOCC4)CC3)c2C)C1=O [Compound 41] | 110 nM | 43000 nM | 180 to 183 °C |  |
| CCOC(=O)C1=C(C)N/C(=C/c2cc(C)n(C3CCN(CC)CC3)c2C)C1=O [Compound 20] | 2400 nM | 7600 nM | 140 to 145 °C | solubility [3, 6]: > 250 µM; solubility [3, 7]: > 250 µM |
| CCOC(=O)C1=C(C)N/C(=C/c2cc(C)n(C3CCN(Cc4cnc(N5CCOCC5)nc4)CC3)c2C)C1=O [Compound 53] | 75 nM | 28000 nM | 194 to 199 °C |  |
| CCOC(=O)C1=C(C)N/C(=C/c2cc(C)n(C3CCN(Cc4cccn4C)CC3)c2C)C1=O [Compound 50] | 12 nM | 3000 nM | 190 to 194 °C |  |
| CCOC(=O)C1=C(C)N/C(=C/c2cc(C)n(C3CCN(Cc4ccc(N5CCOCC5)nc4)CC3)c2C)C1=O [Compound 52] | 1500 nM | 50000 nM | > 280 °C |  |
| CCOC(=O)C1=C(C)N/C(=C/c2cc(C)n(C3CCN(C(C)c4ccc(C(F)(F)F)cc4)CC3)c2C)C1=O (stereo not drawn) [Compound 35] | 7 nM | 4260 nM |  |  |
| CCCn1ccc2c(c1=O)C(=O)/C(=C\c1cc(C)n(-c3ccccc3C(F)(F)F)c1C)N2 [Compound 59] | 150 nM |  | 180 to 185 °C | drop / loss in activity (fold) ([1]; P. falciparum K1, C-ring variants, comparator not stated explicitly): tenfold; EC50 [2, 8]: 34000 nM |
| Cc1cc(/C=C2/Nc3ccn(CCN4CCOCC4)c(=O)c3C2=O)c(C)n1-c1ccccc1C(F)(F)F [Compound 60] | 230 nM |  | 180 to 185 °C | decrease in EC50 value relative to the unsubstituted analogue 56 ([1]; P. falciparum K1, relative to 56): fivefold; EC50 [2, 8]: 65000 nM |
| CCOC(=O)C1=C(C)N/C(=C/c2cc(C)n(C3CCN(CCc4ccc(OC)cc4)CC3)c2C)C1=O [Compound 32] | 83 nM | 72000 nM |  | solubility [3, 6]: 25 to 51 µM (≈ 12.3 to 25.1 µg/mL); solubility [3, 7]: 100 to 200 µM (≈ 49.2 to 98.3 µg/mL) |
| CCOC(=O)C1=C(C)N/C(=C/c2cc(C)n(C3CCN(Cc4ncc[nH]4)CC3)c2C)C1=O [Compound 46] | 1200 nM | 28000 nM | 185 to 190 °C |  |
| CCOC(=O)C1=C(C)N/C(=C/c2cc(C)n(C3CCN(Cc4ccc(F)cc4)CC3)c2C)C1=O [Compound 26] | 24 nM | 51000 nM |  | solubility [3, 5]: > 125 µM |
| CCOC(=O)C1=C(C)N/C(=C/c2cc(C)n(C3CCN(CCc4ccc(F)cc4)CC3)c2C)C1=O [Compound 34] | 96 nM | 22000 nM |  | solubility [3, 6]: 13 to 26 µM (≈ 6.23 to 12.5 µg/mL); solubility [3, 7]: 52 to 100 µM (≈ 24.9 to 48 µg/mL) |
| CCOC(=O)C1=C(C)N/C(=C/c2cc(C)n(C3CCN(Cc4nccn4C)CC3)c2C)C1=O [Compound 49] | 1000 nM | 16000 nM | 186 to 189 °C |  |
| CCOC(=O)C1=C(C)N/C(=C/c2cc(C)n(C3CCN(Cc4ccc(C(F)(F)F)cc4)CC3)c2C)C1=O [Compound 28] | 2 nM | 5000 nM |  | solubility [3, 6]: 6 to 12 µM (≈ 3.09 to 6.19 µg/mL); solubility [3, 5]: > 125 µM; solubility [3, 7]: 48 to 97 µM (≈ 24.7 to 50 µg/mL) |
| CCOC(=O)C1=C(C)N/C(=C/c2cc(C)n(C3CCN(CCc4ccc(C(F)(F)F)cc4)CC3)c2C)C1=O [Compound 33] | 130 nM | 19000 nM |  |  |
| CCOC(=O)C1=C(C)N/C(=C/c2cc(C)n(C3CCN(CCc4ccccc4)CC3)c2C)C1=O [Compound 31] | 320 nM | 107000 nM |  |  |
| CCOC(=O)C1=C(C)N/C(=C/c2cc(C)n(C3CCN(CC(C)(C)C)CC3)c2C)C1=O [Compound 23] | 58 nM | 88000 nM | 139 to 142 °C |  |

Reference: PMC3963473, “Structure–Activity Relationship Studies of Pyrrolone Antimalarial Agents” (Chemmedchem, 2013)
